≈ marks a conversion by molar mass, not a printed value. Where “and” joins values, the source holds several entries; their conditions need not be identical. Equal values may be shown once. Where a SMILES comes first, the peptide text is derived from it. Bridges are numbered along the chain shown (N, C = ends). Roman numbers before positions name the chains, in order. Side-chain parts run from the residue outwards. The star is where a group is joined. Myristoyl = CCCCCCCCCCCCCC(=O)*; Lauroyl = CCCCCCCCCCCC(=O)*; Decanoyl = CCCCCCCCCC(=O)*; Octanoyl = CCCCCCCC(=O)*
Assays:
[1] = tested on: Enterococcus faecium ATCC 700221; assay type: cell-based; details: ATCC 700221, 24 h
In short: (§1)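 Biofilms grown 24 h at 37°C from 5.0 × 10^5 CFU/mL inocula in MHB, rinsed with PBS, then exposed to compounds at 1–512 μg/mL for 24 h at 37°C. Viability read by resazurin after 1 h (570/600 nm). MBEC is the lowest concentration giving ≤10 ± 0.5% reduction relative to controls; triplicates.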

[2] = tested on: Candida albicans ATCC 10231; assay type: cell-based; details: ATCC 10231, 24 h
[3] = tested on: Klebsiella pneumoniae ATCC 700603; assay type: cell-based; details: ATCC 700603, 24 h
In short: as §1

[4] = tested on: Candida glabrata ATCC 15126; assay type: cell-based; details: ATCC 15126, 24 h
[5] = tested on: Staphylococcus aureus ATCC 25923; assay type: cell-based; details: ATCC 25923, 24 h
In short: as §1

[6] = tested on: Pseudomonas aeruginosa ATCC 9027; assay type: cell-based; details: ATCC 9027, 24 h
In short: as §1

[7] = tested on: Klebsiella aerogenes ATCC 13048; assay type: cell-based; details: ATCC 13048, 24 h
In short: as §1

HaCaT cells = assay type: cell-based, human; details: 24 h
Method: Cells were trypsinized, and the medium was renewed 2–3 times per week. The cytotoxicity of compounds was assessed by the determination of cell metabolic activity by colorimetric CellTilter 96® Aqueous One Solution Cell Proliferation Assay (Promega, Madison, WI, USA), according to the manufacturer’s instructions. […] Every compound was medium-soluble in 37 °C; thus, the control cells were cultured with the medium. Serial dilutions of the tested compounds were always prepared prior to use. Cells were incubated with drugs for 24 h, and then, 20 μL of the CellTiter 96®AqueousOne Solution Reagent was added to each well containing cells maintained in 100 μL of culture medium.

[8] = Critical aggregation concentration by surface tension (Du Noüy ring, K100 tensiometer); assay type: physicochemical; details: unbuffered aqueous solution, 298 K
Method: The identity of the purified peptides was confirmed with electrospray ionization mass spectrometry (ESI-MS) in positive ion mode. Results of MS analyses and net charge are attached in Supplementary Materials (Table S1). Peptides’ hydrophobicity was evaluated by analytical reversed-phase high-performance liquid chromatography (RP-HPLC). The critical aggregation concentrations (CACs) of the lipopeptides were determined in unbuffered aqueous solution at 298 K by measuring the surface tension as a function of lipopeptide concentration. The measurements were carried out by the Du Noüy ring method on a K100 tensiometer. The surface tension data were plotted against the logarithm of lipopeptide concentration. CAC was found as the intersection of two lines being linear regression of data below and above CAC.
The critical aggregation concentration (CAC) values were determined fully automatically using a K100 tensiometer (KRUSS, Hamburg, Germany) equipped with two micro dosimeters by measuring the surface tension vs. lipopeptide concentration. The measurements were performed in unbuffered aqueous solution at 298 K using the Du Noüy ring method. The accuracy of the surface tension measurements was 0.1 mN/m. The critical aggregation concentration (CAC) was defined as the intersection of two lines fitted to the experimental data collected before and after the inflection point.

[9] = tested on: human red blood cells (hRBCs); assay: Hemolysis assay; assay type: cell-based; details: red cells of human, 1 h
Method: The hemolysis assay was performed by using the method reported previously. Fresh human red blood cells (hRBCs) with anticoagulant (EDTA) were rinsed three times with a PBS by centrifugation at 800× g for 10 min and diluted with PBS. The compounds were serially diluted on a 96-well microtiter polystyrene plate, and hRBCs were added up to a final volume of 100 μL. The compound concentration ranged between 0.5 and 256 μg/mL and the final hRBCs concentration was 4% (v/v). Controls for zero (blank) and 100% hemolysis consisted of hRBCs suspended in PBS and 1% of Triton-X 100 (Carl Roth GmbH, Karlsruhe, Germany), respectively. The plate was incubated for 1 h at 37 °C and then centrifuged (800× g, 10 min, 4 °C). Subsequently, the supernatant was […] to new microtiter plates, and the absorbance at 540 nm was measured (Multiskan GO Microplate Spectrophotometer, Thermo Fisher Scientific, Vantaa, Finland). All experiments were conducted in triplicate. HC50 was calculated using an ic50.tk tool. The protocol of the study was approved by the local Bioethics Committee at the Medical University of Gdańsk (NKBBN/262/2019, approval date: 10 June 2019).

Compound	MBEC Enterococcus faecium ATCC 700221 [1] [µg/mL]	MBEC Candida albicans ATCC 10231 [2] [µg/mL]	MBEC Klebsiella pneumoniae ATCC 700603 [3] [µg/mL]	MBEC Candida glabrata ATCC 15126 [4] [µg/mL]	MBEC Staphylococcus aureus ATCC 25923 [5] [µg/mL]	MBEC Pseudomonas aeruginosa ATCC 9027 [6] [µg/mL]	MBEC Klebsiella aerogenes ATCC 13048 [7] [µg/mL]	IC50 (HaCaT cells) [µg/mL]	CAC [8]	Surface Tension at CAC [8] [mN/m]	HC50 [9] [µg/mL]
CCCCCCCC(=O)N[C@@H](CCCNC(=N)N)C(=O)N[C@@H](CCCNC(=N)N)C(N)=O [Compound A1, C8-RR-NH2] (Octanoyl-Arg-Arg-NH2)	>512	>512	>512	>512	>512	>512	>512	>500			
CCCCCCCCCC(=O)N[C@@H](CCCNC(=N)N)C(=O)N[C@@H](CCCNC(=N)N)C(=O)N[C@@H](CSSC[C@H](NC(=O)[C@H](CCCNC(=N)N)NC(=O)[C@H](CCCNC(=N)N)NC(=O)CCCCCCCCC)C(N)=O)C(N)=O [Compound C2] (I: Decanoyl-Arg-Arg-Cys-NH2 / II: Decanoyl-Arg-Arg-Cys-NH2; disulfide I:3-II:3)	4	32	512	512	32	512	256	231.17 ± 24.37 (≈ 197 µM)	3.30 mM and 3832.7 μg/mL	43	>256
CCCCCCCCCC(=O)N[C@@H](CCCNC(=N)N)C(=O)N[C@@H](CCCNC(=N)N)C(=O)NCCCC[C@H](NC(=O)[C@H](CCCNC(=N)N)NC(=O)[C@H](CCCNC(=N)N)NC(=O)CCCCCCCCC)C(N)=O [Compound B2] (Decanoyl-Arg-Arg-Lys([Arg-Arg-Decanoyl])-NH2)	4	32	256	512	8	512	256	150.03 ± 3.15 (≈ 139 µM)	3.69 mM and 3980.0 μg/mL	36	>256
CCCCCCCC(=O)N[C@@H](CCCNC(=N)N)C(=O)N[C@@H](CCCNC(=N)N)C(=O)NCCCC[C@H](NC(=O)[C@H](CCCNC(=N)N)NC(=O)[C@H](CCCNC(=N)N)NC(=O)CCCCCCC)C(N)=O [Compound B1] (Octanoyl-Arg-Arg-Lys([Arg-Arg-Octanoyl])-NH2)	128	256	>512	>512	32	512	>512	378.40 ± 93.71 (≈ 370 µM)			>256
CCCCCCCCCCCC(=O)N[C@@H](CCCNC(=N)N)C(=O)N[C@@H](CCCNC(=N)N)C(N)=O [Compound A3, C12-RR-NH2] (Lauroyl-Arg-Arg-NH2)	32	128	512	512	64	512	512	153.50 ± 8.13 (≈ 300 µM)	7.48 mM and 3827.3 μg/mL	38	
CCCCCCCC(=O)N[C@@H](CCCNC(=N)N)C(=O)N[C@@H](CCCNC(=N)N)C(=O)N[C@@H](CSSC[C@H](NC(=O)[C@H](CCCNC(=N)N)NC(=O)[C@H](CCCNC(=N)N)NC(=O)CCCCCCC)C(N)=O)C(N)=O [Compound C1] (I: Octanoyl-Arg-Arg-Cys-NH2 / II: Octanoyl-Arg-Arg-Cys-NH2; disulfide I:3-II:3)	64	256	>512	>512	64	512	>512	>500			>256
CCCCCCCCCCCCCC(=O)N[C@@H](CCCNC(=N)N)C(=O)N[C@@H](CCCNC(=N)N)C(N)=O [Compound A4, C14-RR-NH2] (Myristoyl-Arg-Arg-NH2)	8	64	256	256	16	512	256	46.48 ± 3.65 (≈ 86.1 µM)	1.67 mM and 899.7 μg/mL	35	
CCCCCCC(CCCC)C(=O)N[C@@H](CCCNC(=N)N)C(=O)N[C@@H](CCCNC(=N)N)C(=O)NCCCC[C@H](NC(=O)[C@H](CCCNC(=N)N)NC(=O)[C@H](CCCNC(=N)N)NC(=O)C(CCCC)CCCCCC)C(N)=O (stereo partly shown) [Compound B7]	8	64	128	256	8	256	64	78.78 ± 6.93 (≈ 69.4 µM)			>256
CCCCCCCCCC(=O)N[C@@H](CCCNC(=N)N)C(=O)N[C@@H](CCCNC(=N)N)C(N)=O [Compound A2, C10-RR-NH2] (Decanoyl-Arg-Arg-NH2)	512	512	>512	>512	512	>512	>512	>500			

Source: article PMC8036666, “Biological and Physico-Chemical Characteristics of Arginine-Rich Peptide Gemini Surfactants with Lysine and Cystine Spacers” (International Journal of Molecular Sciences, 2021)
